Measured values: patent publication US5256780A, “Pyrimidoindole derivatives and processes for preparation thereof” (Fujisawa Pharmaceutical Co., Ltd., priority 1989, dated 1993)
Like-named read-outs stand apart in the source and are kept apart here.

Test system: Bezold-Jarisch reflux
Assay: Inhibition of Bezold-Jarisch reflux (2-methyl-5-hydroxytryptamine-induced bradycardia in anesthetized rats)
Format: in vivo
Conditions: test compound iv, 5-minutes interval, then 2-methyl-5-hydroxytryptamine 32 μg/kg iv, urethane-anesthetized male Sprague-Dawley rats, bradycardic response
Method: Inhibition of Bezold-Jarisch reflux
Male Sprague-Dawley rats weighing 260-350 g were anesthetized intraperitoneally with 1.25 g/kg urethane.
Blood pressure and heart rate were monitored continuously from the left common carotid artery with a pressure transducer. A right femoral vein was cannulated for the intravenous injection (iv) of drugs. The trachea was also cannulated to ease the respiration.
Rats were given a rapid bolus injection of 2-methyl-5-hydroxytryptamine (32 μg/kg, iv) to establish the control bradycardic response. Once the heart rate returned to base line, the rats were given the test compound (iv), followed by 5-minutes interval and another bolus injection of 2-methyl-5-hydroxytryptamine (32 μg/kg, iv).

Compound: 3,4-dihydro-5-methyl-2-[(5-methyl-1-trityl-1H-imidazol-4-yl)methyl]pyrimido[1,6-a]indol-1 (2H)-one [Example 1]
- ED50: 0.56 µg/kg

Compound: Cc1[nH]cnc1C(C)N1CCc2c(C)c3ccccc3n2C1=O.Cl (centres unmarked) [Compound 2, 3,4-Dihydro-5-methyl-2-[1-(5-methyl-1H-imidazol-4-yl)ethyl]pyrimido[1,6-a]indol-1(2H)-one hydrochloride]
- ED50 (Rattus norvegicus, 5 min, read-out: ED50): 1.5 µg/kg
